In PubChem BioAssay AID2060890 (Molecular Pharmacology Branch, DTP, NCI, 2025):

Tested on: LG0703-F948-PDC complex spheroid viability
Assay: Anticancer human tumor LG0703-F948-PDC patient-derived lung adenocarcinoma cell line growth inhibition [RAS]
Settings: for IC50: curve of first compound; for viability, T/C: stronger effect = lower value
How it was run: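 Agents were tested in combination matrices in half-log decrements from a top concentration at or near clinical Cmax (10 microM if undetermined). Targets were multi-cell spheroids of tumour lines plus HUVEC and MSC stromal cells.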
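Further: spheroids exposed to agents for 7 days.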
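Wherever viability, T/C is given: 100% = DMSO vehicle wells.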

O=C(c1ccc(F)c(F)c1Nc1ccc(I)cc1F)N1CC(O)([C@@H]2CCCCN2)C1 + CCn1c(-c2cc(N3CCN(C)CC3)cnc2C(C)OC)c2c3cc(ccc31)-c1csc(n1)CC(NC(=O)C1CC1C)C(=O)N1CCCC(N1)C(=O)OCC(C)(C)C2
IC50 (second compound 0.000949 µM): 5.33 nM
IC50 (second compound 0.003 µM): < 3.16 nM
IC50 (second compound 0.00949 µM): < 3.16 nM
IC50 (second compound 0.03 µM): < 3.16 nM
IC50 (second compound 0.0949 µM): < 3.16 nM
IC50 (second compound 0.3 µM): < 3.16 nM
viability, T/C (second compound 0.000949 µM, first compound 0.00316 µM): 59.2%
viability, T/C (second compound 0.000949 µM, first compound 0.01 µM): 38.7%
viability, T/C (second compound 0.000949 µM, first compound 0.0316 µM): 28%
viability, T/C (second compound 0.000949 µM, first compound 0.1 µM): 19.2%
viability, T/C (second compound 0.000949 µM, first compound 0.316 µM): 18.5%
viability, T/C (second compound 0.000949 µM, first compound 1 µM): 14.4%
viability, T/C (second compound 0.003 µM, first compound 0.00316 µM): 37.1%
viability, T/C (second compound 0.003 µM, first compound 0.01 µM): 22.3%
viability, T/C (second compound 0.003 µM, first compound 0.0316 µM): 19.1%
viability, T/C (second compound 0.003 µM, first compound 0.1 µM): 10.5%
viability, T/C (second compound 0.003 µM, first compound 0.316 µM): 11.4%
viability, T/C (second compound 0.003 µM, first compound 1 µM): 8.17%
viability, T/C (second compound 0.00949 µM, first compound 0.00316 µM): 17.4%
viability, T/C (second compound 0.00949 µM, first compound 0.01 µM): 15.4%
viability, T/C (second compound 0.00949 µM, first compound 0.0316 µM): 8.52%
viability, T/C (second compound 0.00949 µM, first compound 0.1 µM): 6.3%
viability, T/C (second compound 0.00949 µM, first compound 0.316 µM): 8.85%
viability, T/C (second compound 0.00949 µM, first compound 1 µM): 8.14%
viability, T/C (second compound 0.03 µM, first compound 0.00316 µM): 10.5%
viability, T/C (second compound 0.03 µM, first compound 0.01 µM): 8.04%
viability, T/C (second compound 0.03 µM, first compound 0.0316 µM): 4.84%
viability, T/C (second compound 0.03 µM, first compound 0.1 µM): 3%
viability, T/C (second compound 0.03 µM, first compound 0.316 µM): 5.82%
viability, T/C (second compound 0.03 µM, first compound 1 µM): 4.58%
viability, T/C (second compound 0.0949 µM, first compound 0.00316 µM): 7.33%
viability, T/C (second compound 0.0949 µM, first compound 0.01 µM): 6.13%
viability, T/C (second compound 0.0949 µM, first compound 0.0316 µM): 3.55%
viability, T/C (second compound 0.0949 µM, first compound 0.1 µM): 3.1%
viability, T/C (second compound 0.0949 µM, first compound 0.316 µM): 3.05%
viability, T/C (second compound 0.0949 µM, first compound 1 µM): 3.07%
viability, T/C (second compound 0.3 µM, first compound 0.00316 µM): 5.13%
viability, T/C (second compound 0.3 µM, first compound 0.01 µM): 3.55%
viability, T/C (second compound 0.3 µM, first compound 0.0316 µM): 2.8%
viability, T/C (second compound 0.3 µM, first compound 0.1 µM): 2.47%
viability, T/C (second compound 0.3 µM, first compound 0.316 µM): 2.61%
viability, T/C (second compound 0.3 µM, first compound 1 µM): 2.35%

CCN1CCN(Cc2ccc(Nc3ncc(F)c(-c4cc(F)c5nc(C)n(C(C)C)c5c4)n3)nc2)CC1 + C#Cc1c(F)ccc2cc(O)cc(-c3ncc4c(N5CC6CCC(C5)N6)nc(OCC56CCCN5CC(F)C6)nc4c3F)c12
IC50 (second compound 0.0316 µM): > 1000 nM
IC50 (second compound 0.1 µM): > 1000 nM
IC50 (second compound 0.316 µM): > 1000 nM
IC50 (second compound 1 µM): > 1000 nM
IC50 (second compound 3.16 µM): > 1000 nM
IC50 (second compound 10 µM): 7.25 nM
viability, T/C (second compound 0.0316 µM, first compound 0.00316 µM): 114%
viability, T/C (second compound 0.0316 µM, first compound 0.01 µM): 84%
viability, T/C (second compound 0.0316 µM, first compound 0.0316 µM): 78.3%
viability, T/C (second compound 0.0316 µM, first compound 0.1 µM): 92.2%
viability, T/C (second compound 0.0316 µM, first compound 0.316 µM): 82.7%
viability, T/C (second compound 0.0316 µM, first compound 1 µM): 79.8%
viability, T/C (second compound 0.1 µM, first compound 0.00316 µM): 119%
viability, T/C (second compound 0.1 µM, first compound 0.01 µM): 90.3%
viability, T/C (second compound 0.1 µM, first compound 0.0316 µM): 92.1%
viability, T/C (second compound 0.1 µM, first compound 0.1 µM): 90.5%
viability, T/C (second compound 0.1 µM, first compound 0.316 µM): 74%
viability, T/C (second compound 0.1 µM, first compound 1 µM): 69.7%
viability, T/C (second compound 0.316 µM, first compound 0.00316 µM): 103%
viability, T/C (second compound 0.316 µM, first compound 0.01 µM): 99.5%
viability, T/C (second compound 0.316 µM, first compound 0.0316 µM): 84.5%
viability, T/C (second compound 0.316 µM, first compound 0.1 µM): 81.1%
viability, T/C (second compound 0.316 µM, first compound 0.316 µM): 75.5%
viability, T/C (second compound 0.316 µM, first compound 1 µM): 70%
viability, T/C (second compound 1 µM, first compound 0.00316 µM): 84%
viability, T/C (second compound 1 µM, first compound 0.01 µM): 77.7%
viability, T/C (second compound 1 µM, first compound 0.0316 µM): 68.5%
viability, T/C (second compound 1 µM, first compound 0.1 µM): 68.7%
viability, T/C (second compound 1 µM, first compound 0.316 µM): 77.6%
viability, T/C (second compound 1 µM, first compound 1 µM): 64.1%
viability, T/C (second compound 3.16 µM, first compound 0.00316 µM): 73.2%
viability, T/C (second compound 3.16 µM, first compound 0.01 µM): 71.9%
viability, T/C (second compound 3.16 µM, first compound 0.0316 µM): 56.8%
viability, T/C (second compound 3.16 µM, first compound 0.1 µM): 57%
viability, T/C (second compound 3.16 µM, first compound 0.316 µM): 71.3%
viability, T/C (second compound 3.16 µM, first compound 1 µM): 45%
viability, T/C (second compound 10 µM, first compound 0.00316 µM): 62.5%
viability, T/C (second compound 10 µM, first compound 0.01 µM): 44.3%
viability, T/C (second compound 10 µM, first compound 0.0316 µM): 47.7%
viability, T/C (second compound 10 µM, first compound 0.1 µM): 47.5%
viability, T/C (second compound 10 µM, first compound 0.316 µM): 49.5%
viability, T/C (second compound 10 µM, first compound 1 µM): 36.9%
